Experimental data published in ChEMBL document CHEMBL1201862, “PubChem BioAssay data set” (2004).
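Tested at 5 concentrations; 48 h exposure; 96-well plates; endpoints linearly interpolated, else capped at highest concentration. The concentration for 50% growth inhibition is given as GI50.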 The source made the active and inactive calls. Rule as the data show it: active = GI50 up to about 1.1 µM and inactive = higher.

Tests used:
Assay in all cases: NCI-60 cell line screen, 48 h
[1] = test system: CAKI-1
[2] = test system: HL-60
[3] = test system: LOX IMVI
[4] = test system: SW-620
[5] = test system: RXF 393
[6] = test system: UO-31
[7] = test system: OVCAR-5
[8] = test system: KM12
[9] = test system: MOLT-4
[10] = test system: UACC-257
[11] = test system: HOP-62
[12] = test system: UACC-62
[13] = test system: M14
[14] = test system: CCRF-CEM
[15] = test system: NCI-H226
[16] = test system: A549
[17] = test system: Malme-3M

Measured: GI50

CCO/N=[N+](\[O-])N(CC)CC
inactive: [1] > 100 µM | [2] > 100 µM | [3] > 100 µM | [4] > 100 µM | [5] > 100 µM | [6] > 100 µM | [7] > 100 µM | [8] > 100 µM | [9] > 100 µM | [10] > 100 µM | [11] > 100 µM | [12] > 100 µM | [13] > 100 µM | [14] > 100 µM | [15] > 100 µM | [16] > 100 µM

COc1cc(OC)c([C@@H]2OC(=O)C3C2C(=O)O[C@H]3c2cc(OC)c(OC)cc2OC)cc1OC (some centres undefined)
inactive: [1] > 100 µM | [2] 88.9 µM | [4] > 10 µM | [5] > 100 µM | [6] > 100 µM | [8] > 100 µM | [9] > 100 µM | [10] > 100 µM | [11] > 100 µM | [12] > 100 µM | [13] > 100 µM | [14] > 100 µM | [16] > 100 µM

COC(=O)/C(=N/NC(C)(C)C)C(C(=O)OC)C(=O)C(=O)Nc1nc2ccc([N+](=O)[O-])cc2s1 (centres undefined)
inactive: [1] > 100 µM | [2] > 100 µM | [17] > 100 µM | [3] > 100 µM | [4] > 100 µM | [6] > 100 µM | [7] > 100 µM | [8] > 100 µM | [9] > 100 µM | [10] > 100 µM | [11] > 100 µM | [12] > 100 µM | [13] > 100 µM | [14] > 100 µM | [15] > 100 µM | [16] > 100 µM

Nc1nc(SCCC/C=C/B(O)O)nc2c1ncn2C1OC(CO)C(O)C1O (centres undefined)
inactive: [2] > 243 µM | [17] > 243 µM | [3] > 243 µM | [4] > 243 µM | [5] > 243 µM | [7] > 243 µM | [8] > 243 µM | [9] > 243 µM | [10] > 243 µM | [11] > 243 µM | [12] > 243 µM | [13] > 243 µM | [14] > 243 µM | [15] > 243 µM | [16] > 243 µM

O=S1(=O)OCCOS(=O)(=O)C1Cl
inactive: [1] > 100 µM | [2] > 100 µM | [17] > 100 µM | [4] > 100 µM | [6] > 100 µM | [8] > 100 µM | [9] > 100 µM | [10] > 100 µM | [11] > 100 µM | [12] 82.6 µM | [13] > 100 µM | [14] > 100 µM | [15] > 100 µM | [16] > 100 µM

COc1ccc(/C(=N/O)C(c2ccc(OC)cc2)C2C(=O)Oc3ccccc32)cc1 (centres undefined)
inactive: [1] 92 µM | [2] 52.5 µM | [17] 63.1 µM | [3] 79.6 µM | [4] > 100 µM | [6] 35.5 µM | [7] 12.7 µM | [8] 83.4 µM | [9] > 100 µM | [10] 34.7 µM | [12] 82 µM | [13] 51.3 µM | [14] > 100 µM | [15] 37.2 µM | [16] 42 µM

N#CC(c1nc2ccccc2nc1Cl)S(=O)(=O)c1ccccc1 (centres undefined)
inactive: [1] 51.3 µM | [2] > 100 µM | [17] 56.9 µM | [3] 43.5 µM | [4] 69.3 µM | [6] 43.8 µM | [7] > 100 µM | [8] > 100 µM | [9] 32.4 µM | [10] > 100 µM | [11] > 100 µM | [12] 35.8 µM | [13] > 100 µM | [14] 30.1 µM | [15] > 100 µM | [16] > 100 µM

CCCN(CCCCC(NC(C)=O)C(=O)NCc1ccccc1)C(=O)NC (centres undefined)
inactive: [1] > 100 µM | [17] > 100 µM | [3] > 100 µM | [4] > 100 µM | [5] > 100 µM | [6] > 100 µM | [7] > 100 µM | [8] > 100 µM | [9] > 100 µM | [10] > 100 µM | [11] > 100 µM | [12] > 100 µM | [13] > 100 µM | [14] > 100 µM | [15] > 100 µM | [16] > 100 µM

BrC/C=C/C[P+](c1ccccc1)(c1ccccc1)c1ccccc1
inactive: [2] 2.54 µM | [17] 12.4 µM | [3] 10.4 µM | [4] 6.52 µM | [6] 34.2 µM | [7] 31 µM | [8] 4.29 µM | [9] > 100 µM | [10] 8.57 µM | [11] 19.6 µM | [12] 9.04 µM | [13] 13.7 µM | [14] > 100 µM | [16] 7.87 µM

Nc1n[n+](-c2ccccc2)no1
inactive: [1] 24.7 µM | [2] 14.9 µM | [17] 34.7 µM | [3] 42 µM | [4] 45.8 µM | [6] 83.4 µM | [7] 40.7 µM | [8] 10.1 µM | [9] 13.3 µM | [10] 25.9 µM | [11] 31.6 µM | [12] 5.37 µM | [13] 32.7 µM | [14] 31.8 µM | [15] > 100 µM | [16] 39.6 µM

COC(=O)CC(C(C(=O)OCc1ccccc1)C(C)O)N1C(=O)OCC1c1ccccc1 (centres undefined)
inactive: [2] 34.2 µM | [17] > 100 µM | [3] > 100 µM | [4] > 100 µM | [5] 95.7 µM | [6] 24.3 µM | [9] 29.4 µM | [10] 75.7 µM | [11] > 100 µM | [12] 35.6 µM | [13] > 100 µM | [14] 49 µM | [15] 31.6 µM | [16] 44.8 µM

CN(C)Cc1cc(/C(=C(\C#N)c2ccccc2)c2ccc(O)cc2)ccc1O
inactive: [1] 20.9 µM | [17] 16.1 µM | [3] 12.1 µM | [4] 21 µM | [5] 3.96 µM | [6] 20.4 µM | [7] 26.2 µM | [8] 19.9 µM | [9] 15.3 µM | [10] 15.6 µM | [11] 14.4 µM | [12] 17.8 µM | [13] 10.4 µM | [14] 18.4 µM | [15] 21.9 µM | [16] 24.6 µM

CN(C)CCC1(C2=CCCC2)CC/C(=C\c2ccccc2Cl)C1=O (centres undefined)
inactive: [2] 4.41 µM | [17] 14.5 µM | [4] 11.9 µM | [5] 4.49 µM | [6] 7.24 µM | [7] 15.7 µM | [8] 12.9 µM | [9] 4.57 µM | [10] 14.8 µM | [12] 14.6 µM | [13] 12.1 µM | [14] 9.25 µM | [16] 13.8 µM
